From patent US20230330060A1, “COMPOUNDS FOR TREATMENT OF HEART FAILURE” (Sulfateq B.V., priority 2020, published 2023)

Columns and labels:
H9C2 cardiomyocytes [1] = experiment: Quantification of phenylephrine-induced EGFP synthesis as surrogate for cell size (hypertrophy); format: cell-based, rat; conditions: for SUL EGFP Inhibition (%): 30 μM SUL compound, calculated as 100%-Emax; for Expression of EGFP induced by phenylephrine (FIG. 3): preincubation with 30 μM compound
Protocol: (§1) Rat H9C2 cardiomyoblasts (ATCC CRL-1446) were maintained in DMEM medium containing 10% fetal bovine serum and 1% Penicillin-Streptomycin solution (Sigma-Aldrich) and passaged when the cultures reach a confluency of 70%. Prior to experiments, H9C2 myoblasts were differentiated to cardiomyocytes by serum reduction (to 1%) and stimulation with 20 nM retinoic acid for 5 days. Differentiated H9C2 cardiomyocytes were seeded at 0.6·10^5 cells/cm^2 for all experiments.
H9C2 cardiomyocytes (0.6·10^5 cells/cm2) were infected with CMV-copGPF (MOI 10) in culture medium without serum for 24 h. H9C2 cardiomyocytes were pre-incubated with 30 μM SUL compounds under standard culture conditions for 30 min and then stimulated with phenylephrine (dose range 2·10^−5 to 1·10^−11 M) for an additional period of 24 h. Thereafter H9C2 cardiomyocytes were lysed in 100 μl soft lysis buffer (25 mM Tris, 2 mM Dithiothreitol, 2 mM EDTA, 1% Triton X-100, pH 7.4). per well and fluorescence intensity of the obtained supernatant was recorded in a CLARIOStar Plus plate reader (BMG Labtech) equipped with a FITC filter set (excitation 488 nm with 10 nm bandwidth; emission 515 with a 20 nm bandwidth).
All experiments were performed in triplicate per condition and averaged. Data obtained from two individual experiments were used for evaluation in GraphPad Prism 8.0 (GraphPad Software Inc, Ca). Average H9C2 cardiomyocyte cell size was associated to average EGFP levels using linear regression. Phenylephrine-induced EGFP synthesis was normalized, using baseline levels as 0% and maximum EGFP recordings as 100%. All datasets were normalized to vehicle controls. 4 parameter non-linear regression was used to determine the efficacy of potency of phenylephrine to induce GFP synthesis. The efficacy of SUL compounds to inhibit phenylephrine-induced EGFP synthesis was calculated as 100%-Emax, wherein Emax is the maximal effect evoked by phenylephrine.

H9C2 cardiomyocytes [2] = experiment: Determination of cell size (cell surface area) after phenylephrine; format: cell-based, rat; conditions: 24 h
Protocol: as §1
H9C2 cardiomyocytes were serum starved for 24 h and thereafter exposed to different concentrations of phenylephrine (dose range 2·10^−5 to 1·10^−11 M) for an additional 24 h. Cells were washed in ice-cold PBS and fixed by 2% paraformaldehyde in PBS at room temperature for 10 min. Fixed cells were incubated with 5 μM Rhodamine-conjugated Phalloidin (ThermoFisher Scientific) and washed extensively with PBS. Fluorescent pictures were taken randomly with an Zeiss AxioObserver Z1 microscope and cell size was analyzed with CellProfiler software [McQuin, 2018].

H9C2 cardiomyocytes [3] = experiment: Protein synthesis by H9C2 cardiomyocytes after phenylephrine; format: cell-based; conditions: Rattus norvegicus, FIG. 2D, read-out: EC50 for increase of protein synthesis

| SMILES | SUL EGFP Inhibition (%) (H9C2 cardiomyocytes [1]) | Expression of EGFP induced by phenylephrine (FIG. 3) (H9C2 cardiomyocytes [1]) | further results |
| --- | --- | --- | --- |
| C[C@H]1CCC/C=C/[C@@H]2C[C@H](O)C[C@H]2[C@H](O)/C=C/C(=O)O1 [Brefeldin A, reference compound] |  |  | Phenylephrine-induced increase in EGFP fluorescence (FIG. 2F) (H9C2 cardiomyocytes [1]; addition of protein synthesis inhibitor): inhibits the phenylephrine-induced increase in EGFP fluorescence |
| CNC[C@H](O)c1cccc(O)c1 [Phenylephrine] |  |  | EC50 (H9C2 cardiomyocytes [1]; Rattus norvegicus, H9C2 cardiomyocytes transformed with CMV-EGFP lentiviral particles, FIG. 2B, read-out: EC50 for increase of EGFP fluorescence): 5200 pM; H9C2 cardiomyocyte cell surface area (H9C2 cardiomyocytes [2]; 2·10^−5 M phenylephrine, vehicle-treated control 791±263 μm^2): 3278±296 μm^2; EC50 (H9C2 cardiomyocytes [2]; Rattus norvegicus, H9c2, phenylephrine 1·10^−11 to 2·10^−5 M, FIG. 2A, read-out: EC50 for increase of H9C2 cardiomyocyte cell surface area): 740 pM; EC50 (H9C2 cardiomyocytes [3]): 550 pM |
| Cc1c(C)c2c(c(C)c1O)CCC(C)(C(=O)O)O2 (stereo not shown) [SUL-11, 6-hydroxy-2,5,7,8-tetramethylchroman-2-carboxylic acid (Trolox), reference compound] | 54.05 | reduced the expression of EGFP |  |
| Cc1c(C)c2c(c(C)c1O)CC[C@@](C)(C(=O)N[C@@H]1CCCNC1)O2 [SUL-13, (S)-6-hydroxy-2,5,7,8-tetramethyl-N-((R)-piperidin-3-yl)chromane-2-carboxamide] | 68.85 | reduced the expression of EGFP |  |
| COC(=O)CNC(=O)C1(C)CCc2c(C)c(O)c(C)c(C)c2O1 (stereo not shown) [SUL-99, methyl [(6-hydroxy-2,5,7,8-tetramethyl-3,4-dihydro-2H-1-benzopyran-2-carbonyl)amino]acetate, reference compound] | 55.11 | reduced the expression of EGFP |  |
| Cc1c(C)c2c(c(C)c1O)CC[C@@](C)(C(=O)N1CCN(CCO)CC1)O2 [SUL-138, (S)-(6-hydroxy-2,5,7,8-tetramethylchroman-2-yl)(4-(2-hydroxyethyl)piperazin-1-yl)methanone] | 63.18 | reduced the expression of EGFP |  |
| Cc1c(C)c(O)c(CC[C@@](C)(O)C(=O)N2CCN(CCO)CC2)c(C)c1O [SUL-138M2, 4-(2,5-dihydroxy-3,4,6-trimethylphenyl)-2-hydroxy-1-(4-(2-hydroxyethyl)piperazin-1-yl)-2-methylbutan-1-one] | 43.92 |  |  |
| Cc1c(C)c2c(c(C)c1O)CC[C@@](C)(C(=O)N1CCNCC1)O2 [SUL-151, (S)-(6-hydroxy-2,5,7,8-tetramethylchroman-2-yl)(piperazin-1-yl)methanone] | 56.8 | reduced the expression of EGFP |  |
